Source: patent publication US11766470B2, “Manufacture, formulation and dosing of apraglutide” (VectivBio AG, priority 2020, dated 2023)
Square brackets hold non-standard residues; d marks the D form. Peptide text beside a SMILES is read from it. ξ: configuration not given here. Ile(3ξ) = CCC(C)[C@H](N)C(=O)O; Thr(3ξ) = CC(O)[C@H](N)C(=O)O; Nle = CCCC[C@H](N)C(=O)O

Columns and labels:
[1] = cited from earlier work
[2] = MCP-MOD dose-response analysis of citrulline (week 6) in healthy volunteers (Example 7); design: species or system human; conditions: for MCP step, estimate of the difference: citrulline week 6
Excerpt: The MCP-MOD procedure was applied. This statistical methodology consisted of 2 steps: the multiple comparisons step and the modelling step. The first step of the procedure (MCP) is used to test for a significant dose response by assessing pre-specified candidate models. Once a dose response has been established, the second step (MOD) is used to estimate a dose-response curve and estimation of target doses of interest. Five candidate models were specified:
Linear model with maximum effect for the 10 mg dose
Log-linear model with maximum effect for the 10 mg dose
Dose that induces maximum effect (Emax) model with ED50 of 5 mg
Sigmoidal Emax model with ED50 of 1 mg and hill coefficient (HILL) of 2
Sigmoidal Emax model with ED50 of 5 mg and HILL of 5
A subset of the citrulline data was made with the average pre-value and day 35 to 42=week 6 data. The coefficients were implemented in the mixed model analysis of variance with fixed factors treatment, time and treatment by time, random factor subject, and the average prevalue as covariate. The average pre-value was calculated from all pre-values after screening and before dosing.
The following contrasts are calculated within the model:
For all pharmacodynamic endpoints (citrulline, Bristol stool scale and weight), the pre-value has been used as covariate. The average pre-value was calculated from all pre-values after screening and before dosing, except for the Bristol stool scale, where the screening value was also used to calculate the average baseline. The average pre-value of citrulline was also used as covariate in the MCP-MOD, except in the Sigmoid Emax model. This was addressed by subtracting the pre-value times the slope of the linear model of the MCP part from the values of week 6.

CCCC[C@H](NC(=O)[C@H](CCC(=O)O)NC(=O)[C@H](CC(=O)O)NC(=O)[C@H](CO)NC(=O)[C@H](Cc1ccccc1)NC(=O)[C@H](CO)NC(=O)CNC(=O)[C@H](CC(=O)O)NC(=O)CNC(=O)[C@@H](N)Cc1c[nH]cn1)C(=O)N[C@H](Cc1ccccc1)C(=O)N[C@H](C(=O)N[C@H](C(=O)N[C@@H](CC(C)C)C(=O)N[C@@H](CC(=O)O)C(=O)N[C@@H](CC(C)C)C(=O)N[C@@H](CC(C)C)C(=O)N[C@@H](C)C(=O)N[C@@H](C)C(=O)N[C@@H](CCCNC(=N)N)C(=O)N[C@@H](CC(=O)O)C(=O)N[C@@H](Cc1ccccc1)C(=O)N[C@H](C(=O)N[C@@H](CC(N)=O)C(=O)N[C@@H](Cc1c[nH]c2ccccc12)C(=O)N[C@@H](CC(C)C)C(=O)N[C@H](C(=O)N[C@@H](CCC(N)=O)C(=O)N[C@H](C(=O)N[C@@H](CCCCN)C(=O)N[C@H](C(=O)N[C@H](C(=O)N[C@@H](CC(=O)O)C(N)=O)C(C)O)C(C)CC)C(C)O)C(C)CC)C(C)CC)C(C)CC)C(C)O (stereo partly drawn) [apraglutide, L-histidyl-glycyl-L-aspartyl-glycyl-L-seryl-L-phenylalanyl-L-seryl-L-aspartyl-L-glutamyl-L-norleucyl-D-phenylalanyl-L-threonyl-Lisoleucyl-L-leucyl-L-aspartyl-L-leucyl-L-leucyl-L-alanyl-L-alanyl-L-arginyl-L-aspartyl-L-phenylalanyl-L-isoleucyl-L-asparaginyl-Ltryptophanyl-L-leucyl-L-isoleucyl-L-glutaminyl-L-threonyl-L-lysyl-L-isoleucyl-L-threonyl-Laspartic acid amide] (H-HGDGSFSDE[Nle][dF][Thr(3ξ)][Ile(3ξ)]LDLLAARDF[Ile(3ξ)]NWL[Ile(3ξ)]Q[Thr(3ξ)]K[Ile(3ξ)][Thr(3ξ)]D-NH2)
Intestinotrophic effect in animal models, in words [1]: promoted increase in intestinal length and weight, villus height and crypt depth | Predicted citrulline change from placebo effect for dose of 1 mg ([2]; Emax model): 0.8535 µg/mL | Predicted citrulline change from placebo effect for dose of 5 mg ([2]; Emax model): 2.2442 µg/mL | Predicted citrulline change from placebo effect for dose of 10 mg ([2]; Emax model): 2.8182 µg/mL | Predicted dose for citrulline change from placebo of 1 μg/mL ([2]; Emax model): 1.2333 mg | Predicted dose for citrulline change from placebo of 2 μg/mL ([2]; Emax model): 3.8471 mg | Predicted dose for citrulline change from placebo of 3 μg/mL ([2]; Emax model): 13.1053 mg | Predicted citrulline change from placebo effect for dose of 1 mg ([2]; Log-linear model): 0.8712 µg/mL | Predicted citrulline change from placebo effect for dose of 5 mg ([2]; Log-linear model): 2.1652 µg/mL | Predicted citrulline change from placebo effect for dose of 10 mg ([2]; Log-linear model): 2.8604 µg/mL | Predicted dose for citrulline change from placebo of 1 μg/mL ([2]; Log-linear model): 1.2249 mg | Predicted dose for citrulline change from placebo of 2 μg/mL ([2]; Log-linear model): 4.2011 mg | Predicted dose for citrulline change from placebo of 3 μg/mL ([2]; Log-linear model): 11.4325 mg | Predicted citrulline change from placebo effect for dose of 1 mg ([2]; Sigmoid Emax model): 0.7125 µg/mL | Predicted citrulline change from placebo effect for dose of 5 mg ([2]; Sigmoid Emax model): 2.3327 µg/mL | Predicted citrulline change from placebo effect for dose of 10 mg ([2]; Sigmoid Emax model): 2.6946 µg/mL | Predicted dose for citrulline change from placebo of 1 μg/mL ([2]; Sigmoid Emax model): 1.3606 mg | Predicted dose for citrulline change from placebo of 2 μg/mL ([2]; Sigmoid Emax model): 3.4042 mg | Predicted dose for citrulline change from placebo of 2.5 μg/mL ([2]; Sigmoid Emax model): 6.4619 mg | MCP step, estimate of the difference ([2]; candidate model Emax with ED50 = 5 mg): 2.2150 | MCP step, estimate of the difference ([2]; candidate model Linear): 2.0781 | MCP step, estimate of the difference ([2]; candidate model Log-linear): 2.2125 | MCP step, estimate of the difference ([2]; candidate model Sigmoid Emax with ED50 = 1 mg and H = 2): 2.1663 | MCP step, estimate of the difference ([2]; candidate model Sigmoid Emax with ED50 = 5 mg and H = 5): 2.0713
